Measurements reported in patent US8772504B2, “Substituted benzoxazole, benzimidazole, oxazolopyridine and imidazopyridine derivatives as gamma secretase modulators” (Janssen Pharmaceuticals, Inc., priority 2009, dated 2014).

Experiments:
Aβtotal [1] = experiment: Screening for γ-secretase-modulating activity, Method 2: Aβtotal Alphalisa on SKNBE2 cell supernatant; format: cell-based; conditions: Method 2, Table 3c, SKNBE2 cells carrying APP 695 wild type, overnight incubation
Procedure, shortened: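 SKNBE2 cells expressing wild-type APP695, plated at 10^4 cells/well with compound at several concentrations and incubated overnight at 37° C. Aβ42 (C-terminal capture, N-terminal biotinylated detection) and Aβtotal (N-terminal/4G8 pair) measured in supernatant by AlphaLISA. IC50 from 4-parameter fit of percent of compound-free control.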

Aβtotal [2] = experiment: In vivo efficacy Method 1: brain soluble Aβtotal by ELISA; set-up: species or system mouse; conditions: Table 4a, single oral dose, overnight fasted animals, sacrificed after 4 h, soluble fraction of brain homogenates
Procedure, shortened: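 Overnight-fasted rodents or APP transgenic mice given a single oral dose in 20% Captisol or 20% hydroxypropyl β-cyclodextrin and sacrificed after 4 h. Right-hemisphere homogenate high-speed supernatant used: neutralized portion for Aβtotal, Oasis HLB-purified and concentrated eluate for Aβ42, both quantified by ELISA.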

For `COc1cc(Nc2cccc3c2nc(-c2ccc(F)cc2)n3C)ccc1-n1cnc(C)c1` [Compound 1], the IC50 (Aβtotal [1]; Homo sapiens) was 0.59 µM and the “Aβtotal (% Ctrl) _Mean” value (Aβtotal [2]) was 100 % Ctrl.

With `COc1cc(Nc2cccc3c2nc(-c2ccc(F)cc2)n3C)ccc1-n1cnc(C)n1` [Compound 4] the IC50 (Aβtotal [1]; Homo sapiens) was over 10 µM and the “Aβtotal (% Ctrl) _Mean” value (Aβtotal [2]) was 92 % Ctrl.

With `COc1cc(Nc2nccc3c2nc(-c2ccc(F)cc2)n3C)ccc1-n1cnc(C)c1` [Compound 8] the IC50 (Aβtotal [1]; Homo sapiens) was over 10 µM and the “Aβtotal (% Ctrl) _Mean” value (Aβtotal [2]) was 91 % Ctrl.

For `COc1nc(Nc2cccc3c2nc(-c2ccc(F)cc2)n3C)ccc1-n1cnc(C)c1` [Compound 15], the IC50 (Aβtotal [1]; Homo sapiens) was 7.94 µM and the “Aβtotal (% Ctrl) _Mean” value (Aβtotal [2]) was 83 % Ctrl.

For `CCn1c(CC2CC2)nc2c(Nc3ccc(-n4cnc(C)c4)c(OC)c3)cccc21` [Compound 36], the IC50 (Aβtotal [1]) was 7.41 µM and the “Aβtotal (% Ctrl) _Mean” value (Aβtotal [2]) was 95 % Ctrl.

`COc1cc(Nc2cccc3c2nc(Oc2ccccc2)n3C)ccc1-n1cnc(C)c1` [Compound 61] was tested, and the IC50 (Aβtotal [1]) was 8.51 µM and the “Aβtotal (% Ctrl) _Mean” value (Aβtotal [2]) was 97 % Ctrl.

`Cc1cn(-c2ccc(Nc3cccc4c3nc(-c3ccc(F)cc3)n4C)cc2F)cn1` [Compound 67] was tested, and the IC50 (Aβtotal [1]) was over 10 µM and the “Aβtotal (% Ctrl) _Mean” value (Aβtotal [2]) was 99 % Ctrl.

In the case of `Cc1ncn(-c2ccc(Nc3cccc4c3nc(-c3ccc(F)cc3)n4C(C)C)cc2)n1.Cl.Cl` [Compound 73], the IC50 (Aβtotal [1]) is reported as over 10 µM and the “Aβtotal (% Ctrl) _Mean” value (Aβtotal [2]) is reported as 97 % Ctrl.

With `COc1cc(Nc2cccc3c2nc(-c2ccc(F)cc2)n3C(C)C)ccc1-n1cnc(C)n1.Cl.Cl` [Compound 75] the IC50 (Aβtotal [1]) was 7.76 µM and the “Aβtotal (% Ctrl) _Mean” value (Aβtotal [2]) was 92 % Ctrl.

For `Cc1ncn(-c2ccc(Nc3cccc4c3nc(-c3ccc(F)cc3)n4C(C)C)cn2)n1` [Compound 76], the IC50 (Aβtotal [1]) was over 10 µM and the “Aβtotal (% Ctrl) _Mean” value (Aβtotal [2]) was 102 % Ctrl.

With `COc1cc(Nc2nccc3c2nc(-c2ccc(F)cc2)n3C)ccc1-n1cnc(C)n1` [Compound 92] the IC50 (Aβtotal [1]) was 4.27 µM and the “Aβtotal (% Ctrl) _Mean” value (Aβtotal [2]) was 103 % Ctrl.

Molecule `COc1cc(Nc2cc(C(C)C)nc3c2nc(-c2ccc(F)cc2)n3C)ccc1-n1cnc(C)n1` [Compound 110] has an IC50 (Aβtotal [1]; Homo sapiens) of over 10 µM.

Work on `COc1cc(-c2nc3c(Nc4ccc(-n5cnc(C)n5)c(OC)c4)nccc3n2C)ccc1Cl` [Compound 114] yielded an IC50 (Aβtotal [1]; Homo sapiens) of 3.89 µM.

`COc1nc(Nc2cc(F)cc3c2nc(-c2ccc(F)cc2)n3C)ccc1-n1cnc(C)c1` [Compound 115] was tested, and the IC50 (Aβtotal [1]) was over 10 µM and the “Aβtotal (% Ctrl) _Mean” value (Aβtotal [2]) was 93 % Ctrl.

In the case of `COc1cc(Nc2nccc3c2nc(-c2ccccc2C(F)(F)F)n3C)ccc1-n1cnc(C)n1` [Compound 130], the IC50 (Aβtotal [1]) is reported as over 10 µM and the “Aβtotal (% Ctrl) _Mean” value (Aβtotal [2]) is reported as 94 % Ctrl.

In the case of `COc1cc(Nc2nc(C)cc3c2nc(-c2ccc(F)cc2)n3C)ccc1-n1cnc(C)n1` [Compound 164], the IC50 (Aβtotal [1]) is reported as over 10 µM and the “Aβtotal (% Ctrl) _Mean” value (Aβtotal [2]) is reported as 97 % Ctrl.
